Measured values reported in patent US20250326753A1, “DUAL CXCR4-BTK INHIBITORS” (X4 Pharmaceuticals, Inc., priority 2022, published 2025).
pIC50: −log10 of the molar value. Where two headings read alike, the source gives them in different places.

Tests used:
[1] = biological target: T1, PAK3 (Homo sapiens, UniProt O75914); test: PanQinase kinase panel: PAK3; format: biochemical; conditions: read-out: INHIBITORY EFFECT @ 1 uM: PAK3
T1 construct: purchased Reaction Biology Europe GmbH
Description: (§1) Screening procedures were performed in accordance with the company's on-line protocol [accessed on-line Mar.
(§2) For each kinase, the median value of the cpm of three wells was defined as “low control” (n=3). This value reflects unspecific binding of radioactivity to the plate in the absence of a protein kinase but in the presence of the substrate. Additionally, for each kinase the median value of the cpm of three other wells was taken as the “high control,” i.e. full activity in the absence of any inhibitor (n=3). The difference between high and low control of each enzyme was taken as 100% activity.
(§3) As part of the data evaluation the low control of each kinase was subtracted from the high control value as well as from their corresponding “compound values”. The residual activity (in %) for each compound well was calculated by using the following formula: Res. Activity (%)=100×[(signal of compound−low control)/(high control−low control)].

[2] = biological target: BTK (Homo sapiens, UniProt Q06187); test: PanQinase kinase panel: BTK; format: biochemical; parameters: purchased Reaction Biology Europe GmbH
Description: as §1, §2
(§4) As part of the data evaluation the low control of each kinase was subtracted from the high control value as well as from their corresponding “compound values”.

[3] = biological target: T2, p38beta (Homo sapiens, UniProt Q15759); test: PanQinase kinase panel: p38beta; format: biochemical; conditions: read-out: INHIBITORY EFFECT @ 1 uM: p38beta
T2 construct: purchased Reaction Biology Europe GmbH
Description: as §1, §2, §3

[4] = biological target: T3, FES (Homo sapiens, UniProt P07332); test: PanQinase kinase panel: FES; format: biochemical; conditions: read-out: INHIBITORY EFFECT @ 1 uM: FES
T3 construct: purchased Reaction Biology Europe GmbH
Description: as §1, §2, §3

[5] = biological target: T4, CLK1 (Homo sapiens, UniProt P49759); test: PanQinase kinase panel: CLK1; format: biochemical
T4 construct: purchased Reaction Biology Europe GmbH
Description: as §1, §2, §3

[6] = biological target: T5, MST1 (Homo sapiens, UniProt Q13043); test: PanQinase kinase panel: MST1; format: biochemical; conditions: read-out: INHIBITORY EFFECT @ 1 uM: MST1
T5 construct: purchased Reaction Biology Europe GmbH
T5 sequence (Q13043 1-487): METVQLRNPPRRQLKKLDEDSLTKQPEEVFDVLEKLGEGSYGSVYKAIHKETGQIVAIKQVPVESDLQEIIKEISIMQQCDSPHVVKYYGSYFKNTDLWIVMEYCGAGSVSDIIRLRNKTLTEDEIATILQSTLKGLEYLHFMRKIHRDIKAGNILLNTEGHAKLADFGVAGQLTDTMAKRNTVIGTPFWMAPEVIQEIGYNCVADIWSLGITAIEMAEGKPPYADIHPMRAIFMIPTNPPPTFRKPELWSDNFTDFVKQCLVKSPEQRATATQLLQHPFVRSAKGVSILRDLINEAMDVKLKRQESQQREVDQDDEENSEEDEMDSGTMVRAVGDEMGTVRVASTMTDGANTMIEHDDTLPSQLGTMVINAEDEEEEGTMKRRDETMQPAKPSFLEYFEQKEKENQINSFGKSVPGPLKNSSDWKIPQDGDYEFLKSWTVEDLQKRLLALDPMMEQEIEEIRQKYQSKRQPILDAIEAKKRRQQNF
Description: as §1, §2, §3

[7] = biological target: T6, TRKA (Homo sapiens, UniProt P04629); test: PanQinase kinase panel: TRKA; format: biochemical
T6 construct: purchased Reaction Biology Europe GmbH
Description: as §1, §2, §3

[8] = biological target: T7, SRC (Homo sapiens, UniProt P12931); test: PanQinase kinase panel: SRC; format: biochemical; conditions: read-out: INHIBITORY EFFECT @ 1 uM: SRC
T7 construct: purchased Reaction Biology Europe GmbH
Description: as §1, §2, §4

[9] = biological target: T8, ARAF YDYD (Homo sapiens, UniProt P10398, Y301D/Y302D); test: PanQinase kinase panel: ARAF YDYD; format: biochemical; conditions: read-out: INHIBITORY EFFECT @ 1 uM: ARAF YDYD
T8 construct: purchased Reaction Biology Europe GmbH
T8 sequence (P10398 1-606 Y301D/Y302D): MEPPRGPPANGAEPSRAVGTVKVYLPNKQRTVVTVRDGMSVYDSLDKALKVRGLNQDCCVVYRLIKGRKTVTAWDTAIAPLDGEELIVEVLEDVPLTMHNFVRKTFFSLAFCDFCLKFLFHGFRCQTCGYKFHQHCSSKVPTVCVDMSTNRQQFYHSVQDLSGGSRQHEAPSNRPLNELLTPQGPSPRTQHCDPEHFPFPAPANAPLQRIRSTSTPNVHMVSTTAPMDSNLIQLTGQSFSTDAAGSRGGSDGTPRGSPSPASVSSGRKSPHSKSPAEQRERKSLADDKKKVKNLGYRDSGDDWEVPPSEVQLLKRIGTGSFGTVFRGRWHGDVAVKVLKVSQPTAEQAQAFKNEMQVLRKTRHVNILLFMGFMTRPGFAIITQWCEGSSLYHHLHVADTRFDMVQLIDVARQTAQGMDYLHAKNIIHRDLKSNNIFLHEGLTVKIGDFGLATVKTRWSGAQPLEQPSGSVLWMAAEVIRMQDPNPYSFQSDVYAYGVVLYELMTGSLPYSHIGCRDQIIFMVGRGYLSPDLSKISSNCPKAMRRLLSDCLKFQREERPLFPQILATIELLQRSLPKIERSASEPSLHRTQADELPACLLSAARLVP
Description: as §1, §2, §3

[10] = biological target: T9, MAP3K11 (Homo sapiens, UniProt Q16584); test: PanQinase kinase panel: MAP3K11; format: biochemical
T9 construct: purchased Reaction Biology Europe GmbH
Description: as §1, §2, §4

[11] = biological target: T10, KIT (Homo sapiens, UniProt P10721); test: PanQinase kinase panel: KIT; format: biochemical; conditions: read-out: INHIBITORY EFFECT @ 1 uM: KIT
T10 construct: purchased Reaction Biology Europe GmbH
Description: as §1, §2, §3

[12] = biological target: T11, FYN (Homo sapiens, UniProt P06241); test: PanQinase kinase panel: FYN; format: biochemical; conditions: read-out: INHIBITORY EFFECT @ 1 uM: FYN
T11 construct: purchased Reaction Biology Europe GmbH
Description: as §1, §2, §3

[13] = biological target: T12, YES (Homo sapiens, UniProt P07947); test: PanQinase kinase panel: YES; format: biochemical; conditions: read-out: INHIBITORY EFFECT @ 1 uM: YES
T12 construct: purchased Reaction Biology Europe GmbH
Description: as §1, §2, §4

[14] = test system: GBM-U251MG; test: GBM cell proliferation, U251MG (cell-based cancer efficacy assays); conditions: Homo sapiens, U-251; Table 6B
[15] = read-out: INHIBITORY EFFECT @ 1 uM: BTK
[16] = read-out: INHIBITORY EFFECT @ 1 uM: CLK1
[17] = read-out: INHIBITORY EFFECT @ 1 uM: TRKA
[18] = read-out: INHIBITORY EFFECT @ 1 uM: MAP3K11
[19] = at 1 μM, read-out: inhibition of TRKA

T1 sequence (O75914 whole entry): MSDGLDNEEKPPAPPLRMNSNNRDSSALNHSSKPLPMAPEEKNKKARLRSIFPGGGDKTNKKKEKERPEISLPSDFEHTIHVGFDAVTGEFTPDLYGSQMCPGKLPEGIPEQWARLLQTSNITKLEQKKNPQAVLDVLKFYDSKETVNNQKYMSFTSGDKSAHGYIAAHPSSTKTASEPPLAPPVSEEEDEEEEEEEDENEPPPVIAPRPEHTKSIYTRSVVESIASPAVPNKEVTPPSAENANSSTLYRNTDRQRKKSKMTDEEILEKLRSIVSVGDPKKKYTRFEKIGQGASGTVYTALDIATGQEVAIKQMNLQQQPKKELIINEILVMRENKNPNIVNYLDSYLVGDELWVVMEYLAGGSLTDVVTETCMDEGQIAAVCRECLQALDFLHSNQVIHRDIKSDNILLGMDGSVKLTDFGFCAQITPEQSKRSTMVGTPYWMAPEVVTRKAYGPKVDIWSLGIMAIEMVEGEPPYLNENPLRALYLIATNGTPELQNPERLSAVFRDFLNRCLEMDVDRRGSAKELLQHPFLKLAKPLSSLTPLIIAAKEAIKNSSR
T9 sequence (Q16584 whole entry): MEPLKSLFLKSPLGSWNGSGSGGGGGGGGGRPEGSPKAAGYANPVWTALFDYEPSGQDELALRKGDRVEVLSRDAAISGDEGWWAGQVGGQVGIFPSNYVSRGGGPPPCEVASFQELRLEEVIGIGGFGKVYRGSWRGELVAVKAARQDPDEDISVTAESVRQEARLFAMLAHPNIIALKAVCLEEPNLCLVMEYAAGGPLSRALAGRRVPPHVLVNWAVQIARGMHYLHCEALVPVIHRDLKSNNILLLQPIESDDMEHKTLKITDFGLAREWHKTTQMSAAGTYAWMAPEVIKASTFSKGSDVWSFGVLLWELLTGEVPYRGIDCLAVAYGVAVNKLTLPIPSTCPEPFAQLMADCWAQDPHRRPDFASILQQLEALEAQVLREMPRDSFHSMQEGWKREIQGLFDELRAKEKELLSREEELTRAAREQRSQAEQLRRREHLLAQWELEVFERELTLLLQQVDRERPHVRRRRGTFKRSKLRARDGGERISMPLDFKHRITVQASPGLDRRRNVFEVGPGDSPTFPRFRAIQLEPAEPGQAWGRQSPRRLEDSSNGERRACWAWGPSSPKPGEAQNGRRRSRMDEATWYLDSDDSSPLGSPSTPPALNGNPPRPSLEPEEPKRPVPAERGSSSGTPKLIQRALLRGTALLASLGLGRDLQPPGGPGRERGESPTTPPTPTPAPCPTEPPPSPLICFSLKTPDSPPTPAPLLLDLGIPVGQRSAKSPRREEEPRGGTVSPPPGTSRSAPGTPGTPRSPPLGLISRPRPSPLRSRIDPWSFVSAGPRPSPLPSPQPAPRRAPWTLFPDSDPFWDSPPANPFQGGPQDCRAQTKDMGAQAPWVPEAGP
Chain of BTK (Q06187 whole entry): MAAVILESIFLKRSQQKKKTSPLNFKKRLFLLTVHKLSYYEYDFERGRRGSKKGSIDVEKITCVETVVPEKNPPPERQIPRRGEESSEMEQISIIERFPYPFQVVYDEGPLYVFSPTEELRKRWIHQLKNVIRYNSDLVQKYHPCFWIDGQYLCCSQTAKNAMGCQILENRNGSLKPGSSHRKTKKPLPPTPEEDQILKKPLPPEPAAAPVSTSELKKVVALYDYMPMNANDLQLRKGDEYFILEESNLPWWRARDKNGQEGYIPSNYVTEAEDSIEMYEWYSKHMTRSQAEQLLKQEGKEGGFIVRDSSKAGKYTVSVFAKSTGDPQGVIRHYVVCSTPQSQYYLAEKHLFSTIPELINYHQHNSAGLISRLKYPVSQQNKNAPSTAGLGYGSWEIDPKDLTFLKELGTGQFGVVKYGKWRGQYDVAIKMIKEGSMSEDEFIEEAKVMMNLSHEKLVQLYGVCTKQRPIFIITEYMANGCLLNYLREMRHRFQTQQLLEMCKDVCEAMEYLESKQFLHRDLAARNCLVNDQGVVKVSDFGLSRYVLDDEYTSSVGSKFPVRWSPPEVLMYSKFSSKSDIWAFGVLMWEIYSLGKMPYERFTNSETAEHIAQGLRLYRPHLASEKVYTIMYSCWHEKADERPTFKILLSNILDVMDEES
T10 sequence (P10721 26-976): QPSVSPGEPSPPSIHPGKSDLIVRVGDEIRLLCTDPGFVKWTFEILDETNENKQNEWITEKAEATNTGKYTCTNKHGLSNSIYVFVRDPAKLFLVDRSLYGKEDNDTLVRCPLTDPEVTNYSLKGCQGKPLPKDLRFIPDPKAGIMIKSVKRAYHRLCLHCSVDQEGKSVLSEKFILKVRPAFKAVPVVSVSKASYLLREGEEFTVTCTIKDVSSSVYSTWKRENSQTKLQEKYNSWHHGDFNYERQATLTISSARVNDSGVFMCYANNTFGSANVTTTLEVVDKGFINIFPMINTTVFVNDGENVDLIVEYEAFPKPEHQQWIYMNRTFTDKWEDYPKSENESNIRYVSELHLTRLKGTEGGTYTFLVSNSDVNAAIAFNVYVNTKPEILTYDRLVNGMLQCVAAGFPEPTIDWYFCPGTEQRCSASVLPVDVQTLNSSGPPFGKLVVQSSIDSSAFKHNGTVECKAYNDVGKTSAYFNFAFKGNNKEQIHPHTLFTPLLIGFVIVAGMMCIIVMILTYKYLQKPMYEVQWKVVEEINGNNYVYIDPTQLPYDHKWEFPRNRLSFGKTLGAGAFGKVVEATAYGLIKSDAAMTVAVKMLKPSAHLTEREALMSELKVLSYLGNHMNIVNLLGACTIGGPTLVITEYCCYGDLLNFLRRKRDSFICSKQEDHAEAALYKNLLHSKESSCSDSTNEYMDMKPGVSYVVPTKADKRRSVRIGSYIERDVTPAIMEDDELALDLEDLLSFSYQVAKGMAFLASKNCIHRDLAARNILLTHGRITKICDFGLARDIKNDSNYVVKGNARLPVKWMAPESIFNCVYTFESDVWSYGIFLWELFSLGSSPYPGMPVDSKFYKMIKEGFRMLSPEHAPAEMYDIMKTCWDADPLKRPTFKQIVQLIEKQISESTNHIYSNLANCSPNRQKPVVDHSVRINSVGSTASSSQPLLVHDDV
T4 sequence (P49759 whole entry): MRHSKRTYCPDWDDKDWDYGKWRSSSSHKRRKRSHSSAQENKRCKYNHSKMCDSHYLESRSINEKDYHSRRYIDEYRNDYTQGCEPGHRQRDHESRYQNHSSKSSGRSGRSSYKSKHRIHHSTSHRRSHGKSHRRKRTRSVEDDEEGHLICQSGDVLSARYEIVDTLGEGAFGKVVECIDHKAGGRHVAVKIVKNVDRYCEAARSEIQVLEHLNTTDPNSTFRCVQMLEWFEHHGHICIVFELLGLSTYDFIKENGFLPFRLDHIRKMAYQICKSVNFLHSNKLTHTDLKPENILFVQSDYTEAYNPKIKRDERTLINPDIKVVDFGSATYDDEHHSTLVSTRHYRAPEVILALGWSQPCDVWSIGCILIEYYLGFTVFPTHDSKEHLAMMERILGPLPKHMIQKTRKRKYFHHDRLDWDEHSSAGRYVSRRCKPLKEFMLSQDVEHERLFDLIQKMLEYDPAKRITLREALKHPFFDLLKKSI
T2 sequence (Q15759 whole entry): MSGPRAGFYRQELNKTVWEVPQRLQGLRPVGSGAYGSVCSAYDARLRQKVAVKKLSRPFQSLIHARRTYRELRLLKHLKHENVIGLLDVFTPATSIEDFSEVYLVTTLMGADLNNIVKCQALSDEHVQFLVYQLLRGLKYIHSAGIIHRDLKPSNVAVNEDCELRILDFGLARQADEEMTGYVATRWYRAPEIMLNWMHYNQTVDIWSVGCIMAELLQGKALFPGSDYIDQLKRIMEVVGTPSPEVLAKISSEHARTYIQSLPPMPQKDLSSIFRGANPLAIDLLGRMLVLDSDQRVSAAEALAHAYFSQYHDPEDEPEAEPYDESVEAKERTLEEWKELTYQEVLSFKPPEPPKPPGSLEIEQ
T3 sequence (P07332 whole entry): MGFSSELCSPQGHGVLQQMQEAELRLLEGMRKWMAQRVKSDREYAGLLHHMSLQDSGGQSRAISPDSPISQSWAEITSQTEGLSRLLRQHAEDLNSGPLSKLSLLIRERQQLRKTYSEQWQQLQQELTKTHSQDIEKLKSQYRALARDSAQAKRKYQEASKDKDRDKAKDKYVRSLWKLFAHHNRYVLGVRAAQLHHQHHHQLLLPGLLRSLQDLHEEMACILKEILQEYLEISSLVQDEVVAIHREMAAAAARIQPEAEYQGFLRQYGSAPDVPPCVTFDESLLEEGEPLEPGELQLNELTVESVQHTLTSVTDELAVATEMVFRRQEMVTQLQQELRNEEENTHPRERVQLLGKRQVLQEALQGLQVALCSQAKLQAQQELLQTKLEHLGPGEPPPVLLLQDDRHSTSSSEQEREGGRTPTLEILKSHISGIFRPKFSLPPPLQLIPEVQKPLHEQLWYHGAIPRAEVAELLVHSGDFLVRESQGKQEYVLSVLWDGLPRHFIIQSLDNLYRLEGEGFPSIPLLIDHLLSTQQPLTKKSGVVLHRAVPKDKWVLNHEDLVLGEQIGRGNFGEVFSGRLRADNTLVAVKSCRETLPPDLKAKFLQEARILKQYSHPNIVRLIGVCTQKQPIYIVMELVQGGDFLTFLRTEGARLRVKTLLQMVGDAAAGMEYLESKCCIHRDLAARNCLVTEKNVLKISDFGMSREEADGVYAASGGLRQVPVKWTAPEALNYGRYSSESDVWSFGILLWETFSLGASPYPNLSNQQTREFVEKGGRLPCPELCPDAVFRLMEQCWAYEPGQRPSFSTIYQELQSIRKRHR

SMILES	inhibition at 1 µM [1]	inhibition at 1 µM [2, 15]	inhibition at 1 µM [3]	inhibition at 1 µM [4]	inhibition at 1 µM [5, 16]	inhibition at 1 µM [6]	inhibition at 1 µM [7, 17]	inhibition at 1 µM [8]	inhibition at 1 µM [9]	inhibition at 1 µM [10, 18]	inhibition at 1 µM [11]	inhibition at 1 µM [12]	inhibition at 1 µM [13]	inhibition at 1 µM ([2]; 1 μM, read-out: inhibitor effect on BTK)	inhibition at 1 µM ([5]; at 1 μM, read-out: inhibition of CLK1)	inhibition at 1 µM [7, 19]	Emax [14]	pIC50 [14]	inhibition at 1 µM ([10]; at 1 μM, read-out: inhibition of MAP3K11)
COc1ccc(F)cc1C(=O)NCc1ccc(-c2nn([C@@H](C)C(F)(F)F)c(N)c2C(N)=O)cc1 [LOXO-305, pirtobrutinib]	< 50%	90 to 100%	< 50%	< 50%	< 50%	< 50%	< 50%	< 50%	< 50%	< 50%	< 50%	< 50%	< 50%						
Cc1cccnc1[C@H]1CCC[C@@H](c2ncccc2C)N1CCN1CCN(C(=O)c2ccc(-c3cc4c(-c5cccc(NC(=O)c6ccccc6)c5C)ncnc4[nH]3)cc2)CC1 [Compound I-10, N-(3-(6-(4-(4-(2-((2R,6S)-2,6-bis(3-methylpyridin-2-yl)piperidin-1-yl)ethyl)piperazine-1-carbonyl)phenyl)-7H-pyrrolo[2,3-d]pyrimidin-4-yl)-2-methylphenyl)benzamide]	< 50%	90 to 100%	< 50%	< 50%	50 to 69%	< 50%	70 to 89%	< 50%	< 50%	50 to 69%	< 50%	< 50%	< 50%	≥ 90%	50 to 89%	50 to 89%	98%	5.67	50 to 89%
Cc1cc(-c2ccnc(Nc3cnn(CCN4[C@@H](c5ncccc5C)CCC[C@H]4c4ncccc4C)c3)n2)ccc1CNC(=O)N1CC(OC(C)C)C1 [Compound I-11]																	82%	6.03	
C=CC(=O)N1CCC([C@@H]2CCNc3c(C(N)=O)c(-c4ccc(Oc5ccccc5)cc4)nn32)CC1 [Zanubrutinib, (7S)-2-(4-phenoxyphenyl)-7-(1-prop-2-enoylpiperidin-4-yl)-4,5,6,7-tetrahydropyrazolo[1,5-a]pyrimidine-3-carboxamide]	< 50%		< 50%	< 50%	< 50%	< 50%	< 50%		< 50%	< 50%	< 50%								
O=C(c1ccc(Oc2ccccc2)cc1Cl)c1c[nH]c2ncnc(N[C@@H]3CC[C@@H](CO)OC3)c12 [ARQ-531, (2-chloro-4-phenoxyphenyl) (4-(((3R,6S)-6-(hydroxymethyl)tetrahydro-2H-pyran-3-yl)amino)-7H-pyrrolo[2,3-d]pyrimidin-5-yl) methanone]	90 to 100%	90 to 100%	70 to 89%	50 to 69%		70 to 89%	90 to 100%		70 to 89%		90 to 100%					≥ 50%			
